The kinase profiling compilation of Christmann-Franck et al. (2016)

Assays:
Assay in all cases: KINOMEscan competition binding
Conditions in all cases: compound 10.0 µM
ITK (human) = ITK (human) (UniProt Q08881)
CAMK1G (human) = CAMK1G (human) (UniProt Q96NX5)
MYO3A (human) = MYO3A (human) (UniProt Q8NEV4)
RPS6KA2 KD2 (human) = RPS6KA2 KD2 (human) (UniProt Q15349)
STK32C (human) = STK32C (human) (UniProt Q86UX6)
MARK4 (human) = MARK4 (human) (UniProt Q96L34)
PDPK1 (human) = PDPK1 (human) (UniProt O15530)
ABL2 (human) = ABL2 (human) (UniProt P42684)
SRPK3 (human) = SRPK3 (human) (UniProt Q9UPE1)
ZAP70 (human) = ZAP70 (human) (UniProt P43403)
EPHB4 (human) = EPHB4 (human) (UniProt P54760)
PKN1 (human) = PKN1 (human) (UniProt Q16512)
PLK4 (human) = PLK4 (human) (UniProt O00444)
RIOK3 (human) = RIOK3 (human) (UniProt O14730)
PRKD3 (human) = PRKD3 (human) (UniProt O94806)
TEC (human) = TEC (human) (UniProt P42680)
STK3 (human) = STK3 (human) (UniProt Q13188)
FGFR4 (human) = FGFR4 (human) (UniProt P22455)
PKN2 (human) = PKN2 (human) (UniProt Q16513)
[1] = biological target: JAK1 JH2 pseudokinase (human) (UniProt P23458)
TGFBR1 (human) = TGFBR1 (human) (UniProt P36897)
[2] = tested on: FLT3 (human), P36888 [ITD]
IGF1R (human) = IGF1R (human) (UniProt P08069)
ACVR1 (human) = ACVR1 (human) (UniProt Q04771)
AXL (human) = AXL (human) (UniProt P30530)
Sequence of AXL (human) (P30530 whole entry, looked up): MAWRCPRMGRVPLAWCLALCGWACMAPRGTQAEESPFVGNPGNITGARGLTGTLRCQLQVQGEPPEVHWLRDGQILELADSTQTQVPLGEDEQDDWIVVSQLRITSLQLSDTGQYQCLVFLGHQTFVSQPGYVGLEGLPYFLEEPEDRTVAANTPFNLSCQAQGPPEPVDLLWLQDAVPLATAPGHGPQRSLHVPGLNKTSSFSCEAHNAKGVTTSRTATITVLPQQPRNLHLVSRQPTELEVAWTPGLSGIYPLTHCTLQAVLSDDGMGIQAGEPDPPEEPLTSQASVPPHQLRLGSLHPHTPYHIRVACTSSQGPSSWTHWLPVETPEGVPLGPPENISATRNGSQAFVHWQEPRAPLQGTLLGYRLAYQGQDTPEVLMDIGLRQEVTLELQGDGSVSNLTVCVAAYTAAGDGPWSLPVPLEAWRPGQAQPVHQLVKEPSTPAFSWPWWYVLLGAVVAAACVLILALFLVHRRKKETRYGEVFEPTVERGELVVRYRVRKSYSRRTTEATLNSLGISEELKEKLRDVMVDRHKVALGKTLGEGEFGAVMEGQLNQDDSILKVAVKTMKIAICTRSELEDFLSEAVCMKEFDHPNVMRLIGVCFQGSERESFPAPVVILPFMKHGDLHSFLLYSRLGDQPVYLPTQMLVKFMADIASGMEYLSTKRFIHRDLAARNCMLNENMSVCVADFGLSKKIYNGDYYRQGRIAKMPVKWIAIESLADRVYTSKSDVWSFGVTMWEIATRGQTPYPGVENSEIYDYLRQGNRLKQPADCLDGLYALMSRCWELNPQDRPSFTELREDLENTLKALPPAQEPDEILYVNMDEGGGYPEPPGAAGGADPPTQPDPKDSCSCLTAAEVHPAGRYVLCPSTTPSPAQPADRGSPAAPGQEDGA

PKMYT1 (human) = PKMYT1 (human) (UniProt Q99640)
ADCK4 (human) = ADCK4 (human) (UniProt Q96D53)
NEK1 (human) = NEK1 (human) (UniProt Q96PY6)
HCK (human) = HCK (human) (UniProt P08631)
STK25 (human) = STK25 (human) (UniProt O00506)
LIMK1 (human) = LIMK1 (human) (UniProt P53667)
TNK1 (human) = TNK1 (human) (UniProt Q13470)
Sequence of TNK1 (human) (Q13470 whole entry, looked up): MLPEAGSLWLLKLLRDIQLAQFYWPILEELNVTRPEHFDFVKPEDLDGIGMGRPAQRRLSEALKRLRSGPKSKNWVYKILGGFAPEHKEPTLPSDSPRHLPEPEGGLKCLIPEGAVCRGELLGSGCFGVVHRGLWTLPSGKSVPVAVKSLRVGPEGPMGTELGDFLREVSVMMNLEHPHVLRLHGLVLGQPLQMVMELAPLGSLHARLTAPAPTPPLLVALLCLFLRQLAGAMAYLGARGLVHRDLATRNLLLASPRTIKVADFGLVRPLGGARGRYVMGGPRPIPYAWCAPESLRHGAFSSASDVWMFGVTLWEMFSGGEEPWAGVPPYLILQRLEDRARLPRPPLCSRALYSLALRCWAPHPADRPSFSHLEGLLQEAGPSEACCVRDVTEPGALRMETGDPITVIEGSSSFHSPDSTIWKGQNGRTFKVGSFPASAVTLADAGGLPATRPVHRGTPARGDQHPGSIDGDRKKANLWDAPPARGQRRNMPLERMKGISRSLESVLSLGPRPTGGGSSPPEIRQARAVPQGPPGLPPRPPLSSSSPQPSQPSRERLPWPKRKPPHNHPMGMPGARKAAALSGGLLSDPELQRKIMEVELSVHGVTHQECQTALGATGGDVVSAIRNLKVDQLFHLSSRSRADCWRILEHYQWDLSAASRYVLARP

EPHA7 (human) = EPHA7 (human) (UniProt Q15375)
PRKCD (human) = PRKCD (human) (UniProt Q05655)
IKBKB (human) = IKBKB (human) (UniProt O14920)
Sequence of IKBKB (human) (O14920 whole entry, looked up): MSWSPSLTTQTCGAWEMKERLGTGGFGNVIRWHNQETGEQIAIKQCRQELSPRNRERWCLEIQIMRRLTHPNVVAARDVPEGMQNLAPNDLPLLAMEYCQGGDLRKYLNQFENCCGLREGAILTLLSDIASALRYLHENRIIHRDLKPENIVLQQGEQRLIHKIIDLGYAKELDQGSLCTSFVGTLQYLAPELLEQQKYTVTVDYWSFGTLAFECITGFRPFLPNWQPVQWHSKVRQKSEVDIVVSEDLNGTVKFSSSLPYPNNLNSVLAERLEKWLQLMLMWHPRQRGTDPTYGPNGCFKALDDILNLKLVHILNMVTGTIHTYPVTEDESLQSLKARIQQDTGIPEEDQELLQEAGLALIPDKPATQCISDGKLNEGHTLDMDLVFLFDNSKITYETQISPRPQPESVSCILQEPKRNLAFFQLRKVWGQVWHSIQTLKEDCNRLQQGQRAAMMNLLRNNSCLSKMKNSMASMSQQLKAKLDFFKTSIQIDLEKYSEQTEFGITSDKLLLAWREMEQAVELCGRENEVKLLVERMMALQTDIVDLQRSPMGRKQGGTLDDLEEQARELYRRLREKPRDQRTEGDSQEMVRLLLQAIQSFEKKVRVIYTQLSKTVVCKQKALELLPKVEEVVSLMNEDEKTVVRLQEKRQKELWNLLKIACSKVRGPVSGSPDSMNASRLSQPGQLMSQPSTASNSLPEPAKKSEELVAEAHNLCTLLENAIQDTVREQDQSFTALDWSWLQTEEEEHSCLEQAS

RPS6KA4 KD1 (human) = RPS6KA4 KD1 (human) (UniProt O75676)
AAK1 (human) = AAK1 (human) (UniProt Q2M2I8)
Sequence of AAK1 (human) (Q2M2I8 whole entry, looked up): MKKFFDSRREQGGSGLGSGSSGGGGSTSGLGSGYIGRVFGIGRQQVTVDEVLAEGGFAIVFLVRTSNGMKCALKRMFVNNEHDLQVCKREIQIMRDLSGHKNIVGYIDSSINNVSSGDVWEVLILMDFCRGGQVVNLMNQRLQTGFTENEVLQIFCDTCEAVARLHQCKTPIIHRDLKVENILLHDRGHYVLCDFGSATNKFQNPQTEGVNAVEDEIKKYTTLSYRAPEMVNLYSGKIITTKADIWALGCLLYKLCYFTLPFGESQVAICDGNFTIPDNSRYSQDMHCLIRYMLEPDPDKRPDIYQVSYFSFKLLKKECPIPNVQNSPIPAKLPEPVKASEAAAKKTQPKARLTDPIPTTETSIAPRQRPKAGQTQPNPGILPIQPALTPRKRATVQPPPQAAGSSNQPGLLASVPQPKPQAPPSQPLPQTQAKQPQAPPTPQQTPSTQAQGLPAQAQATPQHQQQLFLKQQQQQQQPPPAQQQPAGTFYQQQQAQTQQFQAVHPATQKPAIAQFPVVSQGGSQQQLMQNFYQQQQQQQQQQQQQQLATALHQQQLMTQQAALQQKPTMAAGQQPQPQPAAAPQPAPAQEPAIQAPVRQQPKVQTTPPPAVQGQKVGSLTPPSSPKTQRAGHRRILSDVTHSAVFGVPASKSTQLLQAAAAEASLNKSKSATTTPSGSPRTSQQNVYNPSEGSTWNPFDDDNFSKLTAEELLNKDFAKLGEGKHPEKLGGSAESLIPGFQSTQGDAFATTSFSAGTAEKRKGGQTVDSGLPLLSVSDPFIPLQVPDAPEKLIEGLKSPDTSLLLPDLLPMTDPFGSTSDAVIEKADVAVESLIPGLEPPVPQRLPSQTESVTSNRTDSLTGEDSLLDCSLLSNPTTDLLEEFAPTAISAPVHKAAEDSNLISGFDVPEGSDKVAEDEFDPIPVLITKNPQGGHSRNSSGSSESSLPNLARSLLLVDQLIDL

ULK2 (human) = ULK2 (human) (UniProt Q8IYT8)
WEE2 (human) = WEE2 (human) (UniProt P0C1S8)
PTK2 (human) = PTK2 (human) (UniProt Q05397)

Sequence of RPS6KA2 KD2 (human) (Q15349 whole entry, looked up): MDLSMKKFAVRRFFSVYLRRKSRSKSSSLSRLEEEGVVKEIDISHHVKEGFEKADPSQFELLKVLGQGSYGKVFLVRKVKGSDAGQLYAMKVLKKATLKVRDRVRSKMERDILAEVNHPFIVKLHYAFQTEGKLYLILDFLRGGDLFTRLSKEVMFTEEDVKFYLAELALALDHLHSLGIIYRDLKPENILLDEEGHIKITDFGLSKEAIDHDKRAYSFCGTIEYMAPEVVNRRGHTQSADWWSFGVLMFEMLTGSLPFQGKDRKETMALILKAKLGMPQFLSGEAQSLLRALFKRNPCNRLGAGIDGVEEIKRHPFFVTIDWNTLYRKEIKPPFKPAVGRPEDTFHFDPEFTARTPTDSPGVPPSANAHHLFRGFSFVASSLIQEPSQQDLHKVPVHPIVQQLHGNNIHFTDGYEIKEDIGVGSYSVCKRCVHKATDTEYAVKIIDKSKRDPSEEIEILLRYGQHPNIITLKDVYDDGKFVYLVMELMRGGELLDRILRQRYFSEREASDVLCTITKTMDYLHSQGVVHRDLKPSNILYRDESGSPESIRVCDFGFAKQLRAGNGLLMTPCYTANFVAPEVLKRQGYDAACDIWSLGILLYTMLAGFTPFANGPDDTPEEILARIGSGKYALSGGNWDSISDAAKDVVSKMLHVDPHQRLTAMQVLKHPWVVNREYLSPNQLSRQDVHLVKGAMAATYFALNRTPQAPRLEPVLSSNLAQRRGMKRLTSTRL
Sequence of STK32C (human) (Q86UX6 whole entry, looked up): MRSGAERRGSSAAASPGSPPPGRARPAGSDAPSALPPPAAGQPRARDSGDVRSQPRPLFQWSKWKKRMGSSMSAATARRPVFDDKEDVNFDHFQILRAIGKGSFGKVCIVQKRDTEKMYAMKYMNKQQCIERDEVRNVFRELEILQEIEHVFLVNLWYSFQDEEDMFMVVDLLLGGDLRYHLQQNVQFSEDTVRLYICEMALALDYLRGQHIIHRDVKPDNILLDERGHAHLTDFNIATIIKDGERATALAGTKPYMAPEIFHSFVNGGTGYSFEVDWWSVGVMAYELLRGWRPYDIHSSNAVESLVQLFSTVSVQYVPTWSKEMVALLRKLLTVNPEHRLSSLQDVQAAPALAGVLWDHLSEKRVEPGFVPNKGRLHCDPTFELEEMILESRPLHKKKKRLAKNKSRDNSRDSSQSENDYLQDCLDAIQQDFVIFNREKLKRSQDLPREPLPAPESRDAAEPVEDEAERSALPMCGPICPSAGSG
Sequence of CAMK1G (human) (Q96NX5 whole entry, looked up): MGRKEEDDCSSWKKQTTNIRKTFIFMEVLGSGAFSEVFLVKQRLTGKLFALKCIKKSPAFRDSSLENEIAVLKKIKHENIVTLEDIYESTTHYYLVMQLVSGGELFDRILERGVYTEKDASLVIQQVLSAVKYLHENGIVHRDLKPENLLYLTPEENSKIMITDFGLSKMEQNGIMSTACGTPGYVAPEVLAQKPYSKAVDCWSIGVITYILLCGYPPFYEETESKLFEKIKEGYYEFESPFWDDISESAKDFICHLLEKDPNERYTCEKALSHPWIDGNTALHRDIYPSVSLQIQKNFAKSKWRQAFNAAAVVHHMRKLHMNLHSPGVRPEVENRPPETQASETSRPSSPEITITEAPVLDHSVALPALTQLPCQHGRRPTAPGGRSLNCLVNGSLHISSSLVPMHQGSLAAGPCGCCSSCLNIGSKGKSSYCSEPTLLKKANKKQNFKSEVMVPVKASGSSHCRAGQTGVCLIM

`Cc1ccc(C(=O)Nc2cccc(C(F)(F)F)c2)cc1Nc1cncc(C(N)=O)c1` gave a kinase still bound, per cent of control (ITK (human)) of 100%, a kinase still bound, per cent of control (CAMK1G (human)) of 100% and a kinase still bound, per cent of control (MYO3A (human)) of 100%. For the same compound, the kinase still bound, per cent of control (RPS6KA2 KD2 (human)) was 100%, the kinase still bound, per cent of control (STK32C (human)) was 100% and the kinase still bound, per cent of control (MARK4 (human)) was 100%. The kinase still bound, per cent of control (PDPK1 (human)) was 100%, the kinase still bound, per cent of control (ABL2 (human)) was 21% and the kinase still bound, per cent of control (SRPK3 (human)) was 100%. It also gave a kinase still bound, per cent of control (ZAP70 (human)) of 100%, a kinase still bound, per cent of control (EPHB4 (human)) of 6.9% and a kinase still bound, per cent of control (PKN1 (human)) of 100%. It also gave a kinase still bound, per cent of control (PLK4 (human)) of 100%, a kinase still bound, per cent of control (RIOK3 (human)) of 100% and a kinase still bound, per cent of control (PRKD3 (human)) of 100%. For the same compound, the kinase still bound, per cent of control (TEC (human)) was 100%, the kinase still bound, per cent of control (STK3 (human)) was 100% and the kinase still bound, per cent of control (FGFR4 (human)) was 100%. For the same compound, the kinase still bound, per cent of control (PKN2 (human)) was 100%, the kinase still bound, per cent of control [1] was 100% and the kinase still bound, per cent of control (TGFBR1 (human)) was 100%. For the same compound, the kinase still bound, per cent of control [2] was 100%, the kinase still bound, per cent of control (IGF1R (human)) was 100% and the kinase still bound, per cent of control (ACVR1 (human)) was 100%. It also gave a kinase still bound, per cent of control (AXL (human)) of 100%, a kinase still bound, per cent of control (PKMYT1 (human)) of 100% and a kinase still bound, per cent of control (ADCK4 (human)) of 100%. For the same compound, the kinase still bound, per cent of control (NEK1 (human)) was 100%, the kinase still bound, per cent of control (HCK (human)) was 100% and the kinase still bound, per cent of control (STK25 (human)) was 100%. The kinase still bound, per cent of control (LIMK1 (human)) was 100%, the kinase still bound, per cent of control (TNK1 (human)) was 100% and the kinase still bound, per cent of control (EPHA7 (human)) was 100%. The kinase still bound, per cent of control (PRKCD (human)) was 100%, the kinase still bound, per cent of control (IKBKB (human)) was 100% and the kinase still bound, per cent of control (RPS6KA4 KD1 (human)) was 100%. For the same compound, the kinase still bound, per cent of control (AAK1 (human)) was 100%, the kinase still bound, per cent of control (ULK2 (human)) was 100% and the kinase still bound, per cent of control (WEE2 (human)) was 100%. It also gave a kinase still bound, per cent of control (PTK2 (human)) of 100%.
For `Cc1ccc(NC(=O)c2cccc(C(C)(C)C#N)c2)cc1Nc1ccc2ncn(C)c(=O)c2c1`, the kinase still bound, per cent of control (ITK (human)) was 100%, the kinase still bound, per cent of control (CAMK1G (human)) was 100% and the kinase still bound, per cent of control (MYO3A (human)) was 100%. The kinase still bound, per cent of control (RPS6KA2 KD2 (human)) was 84%, the kinase still bound, per cent of control (STK32C (human)) was 100% and the kinase still bound, per cent of control (MARK4 (human)) was 100%. For the same compound, the kinase still bound, per cent of control (PDPK1 (human)) was 100%, the kinase still bound, per cent of control (ABL2 (human)) was 12% and the kinase still bound, per cent of control (SRPK3 (human)) was 100%. For the same compound, the kinase still bound, per cent of control (ZAP70 (human)) was 100%, the kinase still bound, per cent of control (EPHB4 (human)) was 0.25% and the kinase still bound, per cent of control (PKN1 (human)) was 100%. For the same compound, the kinase still bound, per cent of control (PLK4 (human)) was 87%, the kinase still bound, per cent of control (RIOK3 (human)) was 100% and the kinase still bound, per cent of control (PRKD3 (human)) was 88%. It also gave a kinase still bound, per cent of control (TEC (human)) of 100%, a kinase still bound, per cent of control (STK3 (human)) of 100% and a kinase still bound, per cent of control (FGFR4 (human)) of 100%. The kinase still bound, per cent of control (PKN2 (human)) was 100%, the kinase still bound, per cent of control [1] was 82% and the kinase still bound, per cent of control (TGFBR1 (human)) was 100%. For the same compound, the kinase still bound, per cent of control [2] was 78%, the kinase still bound, per cent of control (IGF1R (human)) was 95% and the kinase still bound, per cent of control (ACVR1 (human)) was 100%. It also gave a kinase still bound, per cent of control (AXL (human)) of 75%, a kinase still bound, per cent of control (PKMYT1 (human)) of 98% and a kinase still bound, per cent of control (ADCK4 (human)) of 100%. For the same compound, the kinase still bound, per cent of control (NEK1 (human)) was 100%, the kinase still bound, per cent of control (HCK (human)) was 3.1% and the kinase still bound, per cent of control (STK25 (human)) was 100%. The kinase still bound, per cent of control (LIMK1 (human)) was 100%, the kinase still bound, per cent of control (TNK1 (human)) was 100% and the kinase still bound, per cent of control (EPHA7 (human)) was 84%. It also gave a kinase still bound, per cent of control (PRKCD (human)) of 89%, a kinase still bound, per cent of control (IKBKB (human)) of 94% and a kinase still bound, per cent of control (RPS6KA4 KD1 (human)) of 100%. It also gave a kinase still bound, per cent of control (AAK1 (human)) of 100%, a kinase still bound, per cent of control (ULK2 (human)) of 100% and a kinase still bound, per cent of control (WEE2 (human)) of 100%. For the same compound, the kinase still bound, per cent of control (PTK2 (human)) was 100%.
